Target: T1, BK channels heterologously expressed in Xenopus laevis oocytes (Homo sapiens, UniProt Q12791)
T1 construct: expressed in transfected cells; host or cells: Xenopus laevis oocytes
Assay: BK channel opening activity, two-electrode voltage clamp in Xenopus laevis oocytes
Assay type: cell-based
Settings: step from −40 mV to +30 mV
Method: In this example the BK channel opening activity of three cinnamic amide derivatives representative of the invention, i.e. Compound 22 (A), Compound 9 (B) and Compound 19 (C), is determined using BK channels heterologously expressed in Xenopus laevis oocytes.
The electrical current through the BK channel is measured conventional two-electrode voltage clamp. BK current is activated by repeated step protocols. In brief, this protocol goes from a resting membrane potential of −40 mV lasting for 5 seconds to a depolarised step to +30 mV lasting for 1 second. The protocol was repeated continuously.
Having reached a stable current level, Compound A (3 μM), Compound B (1 μM) and Compound C (30 μM) was added.

T1 sequence (Q12791 whole entry): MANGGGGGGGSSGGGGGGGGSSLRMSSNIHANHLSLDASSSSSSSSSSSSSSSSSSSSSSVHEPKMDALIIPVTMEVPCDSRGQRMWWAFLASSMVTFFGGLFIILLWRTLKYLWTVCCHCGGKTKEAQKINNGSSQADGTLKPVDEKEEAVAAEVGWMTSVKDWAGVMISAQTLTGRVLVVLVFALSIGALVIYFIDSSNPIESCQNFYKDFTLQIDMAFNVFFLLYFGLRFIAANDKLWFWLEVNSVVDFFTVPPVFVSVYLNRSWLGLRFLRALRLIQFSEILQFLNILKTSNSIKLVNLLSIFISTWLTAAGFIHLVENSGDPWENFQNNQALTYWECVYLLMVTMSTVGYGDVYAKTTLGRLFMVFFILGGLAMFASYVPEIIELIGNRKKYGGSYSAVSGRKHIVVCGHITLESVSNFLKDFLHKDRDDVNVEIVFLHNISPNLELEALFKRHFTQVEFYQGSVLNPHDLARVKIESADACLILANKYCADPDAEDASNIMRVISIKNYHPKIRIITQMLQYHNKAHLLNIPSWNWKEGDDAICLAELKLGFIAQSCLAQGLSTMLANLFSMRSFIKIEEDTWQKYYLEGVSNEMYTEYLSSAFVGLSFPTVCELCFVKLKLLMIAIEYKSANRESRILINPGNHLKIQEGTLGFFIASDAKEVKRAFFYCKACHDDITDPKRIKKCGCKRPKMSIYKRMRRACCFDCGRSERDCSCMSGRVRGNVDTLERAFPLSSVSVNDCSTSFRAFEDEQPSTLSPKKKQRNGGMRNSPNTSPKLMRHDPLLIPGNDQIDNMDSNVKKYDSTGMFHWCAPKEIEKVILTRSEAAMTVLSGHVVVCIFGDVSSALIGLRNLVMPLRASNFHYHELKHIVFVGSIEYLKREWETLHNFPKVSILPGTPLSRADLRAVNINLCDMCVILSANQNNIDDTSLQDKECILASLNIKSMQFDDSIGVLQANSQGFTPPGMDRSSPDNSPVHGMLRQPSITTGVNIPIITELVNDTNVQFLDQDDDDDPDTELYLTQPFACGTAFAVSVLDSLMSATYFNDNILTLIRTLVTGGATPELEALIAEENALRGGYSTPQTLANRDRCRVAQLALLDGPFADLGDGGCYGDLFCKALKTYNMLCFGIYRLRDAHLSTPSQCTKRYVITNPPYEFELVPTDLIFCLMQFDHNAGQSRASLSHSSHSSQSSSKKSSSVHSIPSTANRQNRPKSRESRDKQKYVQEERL

O=C(/C=C/c1ccc2ccccc2c1)Nc1cc(Cl)ccc1-c1nnn[nH]1 [Compound 9, (E)-N-[5-Chloro-2-(1H-tetrazol-5-yl)-3-phenyl]-3-naphthalen-2-yl-acrylamide]
current activated by depolarisation (BK current) (1 μM): marked increase

O=C(/C=C/c1ccc2ccccc2c1)Nc1cc(Cl)ccc1S(=O)(=O)O [Compound 19, 4-Chloro-2-((E)-3-naphthalen-2-yl-acryloylamino)-benzenesulfonic acid]
current activated by depolarisation (BK current) (30 μM): marked increase

O=C(Nc1cc(Cl)ccc1-c1nnn[nH]1)C1=Cc2cc(Cl)ccc2OC1 [Compound 22, 6-Chloro-2H-chromene-3-carboxylic acid [5-chloro-2-(1H-tetrazol-5-yl)-phenyl]-amide]
current activated by depolarisation (BK current) (3 μM): marked increase

Source: patent US20100087496A1, “NOVEL CINNAMIC AMIDE DERIVATIVES USEFUL AS ION CHANNEL MODULATORS” (NeuroSearch A/S, priority 2006, published 2010)
